What was measured:
[1] = tested on: PPO inhibitor-resistant weeds; experiment: Pot tests with crops in greenhouse (Examples 73 to 2304)
Protocol: On the same day, compound X is applied to the surface of soil so that the application rate of the compound X is 10, 20, 40, or 80 g/ha and the spray liquid amount is 200 L/ha. The plastic pot is then placed in a greenhouse, and at 7 days after the application, soybeans are seeded, and further at 14 days after seeding the soybeans, the effect on the weeds and crop injuries on the soybeans are investigated.
On the same day, compound X is applied to the surface of soil so that the application rate of the compound X is 10, 20, 40, or 80 g/ha and the spray liquid amount is 200 L/ha. The soybeans are then cultivated in a greenhouse, and at 21 days after seeding, the effect on the weeds and crop injuries on the soybeans are investigated.
The soybeans are then cultivated in a greenhouse, and at 21 days after seeding, compound X is applied to the stem and leaf so that the application rate of the compound X is 10, 20, 40, or 80 g/ha and the spray liquid amount is 200 L/ha. Further, the soybeans are cultivated in the greenhouse, and at 14 days after the application of compound X, the effect on the weeds and crop injuries on the soybeans are investigated.

[2] = tested on: waterhemp containing a Gly210 deficiency in PPO2; experiment: Foliar spray pot test in greenhouse, herbicidal effect; type: in vivo, Amaranthus tuberculatus; conditions: 200 L/ha, rating 0 to 100
[3] = tested on: palmer amaranth containing a Gly399Ala mutation in PPO2; experiment: as above; type: in vivo, Amaranthus palmeri; conditions: 200 L/ha, rating 0 to 100
[4] = Examples 289 to 432: as Examples 1 to 144, XtendiMax added at 1 pint/acre (560 g/ha)
[5] = Examples 433 to 576: as Examples 1 to 144, RoundupPowerMax 32 fluid ounce/acre and XtendiMax 1 pint/acre added
[6] = Example 2305: plant height 10 cm, sprayed 5 g/ha, 14 days after
[7] = Example 2306: plant height 30 cm, sprayed 20 g/ha, 7 days after

| Structure (SMILES) | effect on the weeds ([1]; Examples 73 to 144: as Examples 1 to 72, compound Y instead of compound X) | effect on the weeds [1, 4] | effect on the weeds [1, 5] | Herbicidal effect [2, 6] | Herbicidal effect [2, 7] | Herbicidal effect [3, 6] | Herbicidal effect [3, 7] |
| --- | --- | --- | --- | --- | --- | --- | --- |
| CCOC(=O)COc1ncccc1Oc1nc(-n2c(=O)cc(C(F)(F)F)n(C)c2=O)c(F)cc1Cl [compound Y] | effective control effect | effective control effect | effective control effect | – | – | – | – |
| CCOC(=O)COc1ccccc1Oc1nc(-n2c(=O)cc(C(F)(F)F)n(C)c2=O)c(F)cc1Cl [compound X] | – | effective control effect | effective control effect | 60 | 45 | 100 | 97 |

From patent US12426598B2, “Method for controlling herbicide-resistant weed” (SUMITOMO CHEMICAL COMPANY, LIMITED, priority 2019, dated 2025)
